Assays:
human PPARγ receptor = biological target: T1, human PPARγ receptor (Homo sapiens, UniProt P37231); experiment: Luciferase reporter assay of PPARγ agonist activity (Gal4-PPARγ chimera receptor in CV-1 cells); format: cell-based; details: luciferase activity with 1 μM Pioglitazone taken as 100, read-out: PPAR γ agonist activity, relative activity; for Emax at 0.1 µM: CV-1, 0.1 μM compound; for Emax at 1 µM: CV-1, 1 μM compound; for Emax at 10 µM: CV-1, 10 μM compound
T1 construct: corresponding to Ser204-Tyr506 for human PPARγ1 receptor and human PPARγ2; expressed in transfected cells; host or cells: CV-1 cells (pSG5-based expression vector)
T1 sequence (P37231 204-505 limits assumed): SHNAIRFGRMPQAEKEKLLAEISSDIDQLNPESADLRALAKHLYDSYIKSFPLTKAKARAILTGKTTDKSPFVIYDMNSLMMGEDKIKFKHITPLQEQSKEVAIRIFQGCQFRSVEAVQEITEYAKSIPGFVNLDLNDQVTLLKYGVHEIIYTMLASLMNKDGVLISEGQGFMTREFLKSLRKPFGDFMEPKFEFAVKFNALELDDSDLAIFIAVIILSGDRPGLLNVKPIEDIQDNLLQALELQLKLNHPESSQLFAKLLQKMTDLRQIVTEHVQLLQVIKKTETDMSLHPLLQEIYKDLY
Procedure: (§1) Measurement of PPARα Agonist Activity and PPARγ Agonist Activity
(§2) 1. Materials for Assay of Luciferase Using Human PPARα and PPARγ Receptors
(§3) The entire procedure was carried out according to the fundamental methods of genetic engineering and the ordinary method in the yeast one-hybrid or two-hybrid system was applied.
(§4) PGL2-UAS5-TK-luc was prepared as a reporter plasmid carrying a response sequence of Gal4 protein as a basic transcription factor of yeast, an enhancer sequence with five repeat part of UAS, a luciferase gene (luc) under the control of timidine kinase (TK) promoter. Specifically, a DNA fragment encoding a TK promoter (−105/+51) on the downstream side of an enhancer sequence comprising two time repeat of UAS was amplified by PCR using pRL-TK carrying a TK promoter (Promega, Trade name: Catalogue No. E2241) as the template and the primers: […]
(§5) After the fragment was cleaved with XhoI-Hind III, pGL2-UAS2-TK-luc was obtained by inserting the resultant fragment into the XhoI-Hind III site located on the upstream side of a luciferase structural gene on pGL2-Basic vector (Promega, Trade name: Catalogue No. E1641).
(§6) After cleavage of a synthetic DNA as an enhancer sequence comprising three time repeat of Gal4 response sequence (SEQ ID NO: 3): 5′-ATTGGTAC([…])×3 AGATCTCGAC) using KpnI and BgIII was carried out, pGL2-UAS5-TK-luc was prepared by inserting the resulting fragment into the KpnI-BgIIIb site of pGL2-UAS2-TK-luc.
(§7) A vector for expression of a chimera receptor protein, in which a ligand binding region of an internuclear receptor human PPARα or PPARγ receptor was fused with the carboxyl terminal of a DNA binding region of yeast Ga14 protein, was prepared as follows:
(§8) The structural gene of pSG5 (STRATAGENE, Trade Name: Catalogue No. 216201) as the basic expression vector was changed for the chimera receptor except that the promoter-enhancer region was maintained as it was.
(§9) The DNA encoding the ligand binding region of the human PPARα or PPARγ receptor was fused on the downstream side of the DNA encoding the DNA binding region and the amino acid sequence from 1 to 147 positions of Ga14 protein so that their reading frames were fitted and the resulting fused DNA was inserted into pSG5 (trade name) on the down stream side of the promoter-enhancer region. In this step, the DNA sequence was arranged so that a signal for transfer into the nucleus (Ala Pro Lys Lys Lys Arg Lys Val Gly (SEQ ID: No: 4) derived from SV-40T antigen was located on the amino terminal of the ligand binding region of PPARα or PPARγ receptor in order to localize the chimera receptor in the nucleus.
(§10) Based on comparison of the human PPAR receptors described in R. Mukherjee et al., [see J. Steroid Biochem. Molec. Biol., Vol. 51, p157 (1994)] and M. E. Green et al., [see Gene Expression, Vol. 4, p281 (1995))], as the structural gene part used for the ligand binding region PPARα or PPARγ, the human PPARα ligand binding region: Ser167-Tyr468; and the PPARγ ligand binding region: Ser176-Tyr478 were used, which had the same sequences corresponding to Ser204-Tyr506 for human PPARγ1 receptor and human PPARγ2, respectively.
(§11) In order to monitor influence against the basic transcription, an expression vector was prepared which carried a DNA encoding only the DNA binding region and the amino acid sequence from 1 to 147 position of Ga14 protein defective in its PPAR ligand binding region and a signal for transfer into the nucleus of SV-40T-antigen.
(§12) 2. Assay of Luciferase Using Human PPARα or PPARγ Receptor
(§13) CV-1 cells used as a host cell were cultivated according to an ordinary method. Specifically, a fetal bovine serum (Intergent, Catalogue No. 1020-90) was added to a Dulbecco's modified Eagle's medium (DMEM) so that the final concentration became 10%. Further, penicillin G (50 U/ml) and streptomycin sulfate (50 μg/ml) were added. Cultivation was conducted in the resulting medium in a 5% carbon dioxide gas at 37° C. […]

human PPARα receptor = biological target: T2, human PPARα receptor (Homo sapiens, UniProt Q07869); experiment: Luciferase reporter assay of PPARα agonist activity (Gal4-PPARα chimera receptor in CV-1 cells); format: cell-based; details: luciferase activity with 10 μM Wy-14,643 taken as 100, read-out: PPARα agonist activity, relative activity; for Emax at 0.1 µM: CV-1, 0.1 μM compound; for Emax at 1 µM: CV-1, 1 μM compound; for Emax at 10 µM: CV-1, 10 μM compound
T2 construct: expressed in transfected cells; host or cells: CV-1 cells (pSG5-based expression vector)
T2 sequence (Q07869 167-468): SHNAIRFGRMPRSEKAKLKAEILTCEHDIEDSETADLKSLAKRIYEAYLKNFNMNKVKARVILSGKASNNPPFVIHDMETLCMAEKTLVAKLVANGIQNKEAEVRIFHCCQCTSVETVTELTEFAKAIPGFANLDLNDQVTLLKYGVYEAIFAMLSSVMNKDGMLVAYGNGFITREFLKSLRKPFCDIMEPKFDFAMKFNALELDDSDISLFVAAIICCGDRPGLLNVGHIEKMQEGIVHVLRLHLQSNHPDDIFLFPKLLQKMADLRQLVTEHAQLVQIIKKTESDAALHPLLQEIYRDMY
Procedure: as §1, §2, §3, §4, §5, §6, §7, §8, §9, §10, §11, §12, §13

SMILES | Emax at 0.1 µM (human PPARγ receptor) [%] | Emax at 1 µM (human PPARγ receptor) [%] | Emax at 10 µM (human PPARγ receptor) [%] | Emax at 0.1 µM (human PPARα receptor) [%] | Emax at 1 µM (human PPARα receptor) [%] | Emax at 10 µM (human PPARα receptor) [%]
CCOC(Cc1ccc(OCc2cccc3cccnc23)cc1)C(=O)O (stereo not drawn) [Example 16 (32), 2-ethoxy-3-{[4-(quinoline-8-yl)methyloxy]phenyl}propanoic acid] | 1.6 | 71.8 | 127 | 0.3 | 0.4 | 45.2
COc1ccc2ncc(COc3ccc(CC(Sc4ccccc4)C(=O)O)cc3)c(OC(C)C)c2c1 (stereo not drawn) [Example 19 (108), 3-{[4-(4-isopropoxy-6-methoxyquinoline-3-yl)methyloxy]phenyl}-2-phenylthiopropanoic acid] | 25.2 | 83.5 | 97.9 | 0.3 | 0.3 | 0.6
COc1ccc2ncc(COc3ccc(/C=C(\Sc4ccccc4)C(=O)O)cc3)c(OC(C)C)c2c1 [Example 18 (112), 3-{[4-(4-isopropoxy-6-methoxyquinoline-3-yl)methyloxy]phenyl}-2-phenylthiopropenoic acid] | 0.5 | 22.2 | 89.9 | 0.3 | 0.3 | 0.3
CCOC(Cc1ccc(OCc2cnc3ccc(CC)cc3c2OC(C)C)cc1)C(=O)O (stereo not drawn) [Example 6 (67), 2-ethoxy-3-{[4-(4-isopropoxy-6-ethylquinoline-3-yl)methyloxy]phenyl}propanoic acid] | 122 | 140 | 125 | 5.7 | 47.1 | 74
CCOC(Cc1ccc(OCc2cnc3cc(C)cc(C)c3c2OC(C)C)cc1)C(=O)O (stereo not drawn) [Example 5 (71), 2-ethoxy-3-{[4-(4-isopropoxy-5,7-dimethylquinoline-3-yl)methyloxy]phenyl}propanoic acid] | 0.3 | 0.4 | 11.6 | 0.3 | 0.5 | 28.4
CCOC(Cc1ccc(OCc2cnc3cc(OC)c(OC)cc3c2OC(C)C)cc1)C(=O)O (stereo not drawn) [Example 8 (65), 2-ethoxy-3-{[4-(4-isopropoxy-6,7-dimethoxyquinoline-3-yl)methyloxy]phenyl}propanoic acid] | 1.3 | 13 | 107 | 0.3 | 0.3 | 1.5
CCOC(Cc1ccc(OCc2cnc3cc(C(F)(F)F)ccc3c2OC(C)C)cc1)C(=O)O (stereo not drawn) [Example 12 (85), 2-ethoxy-3-{[4-(4-isopropoxy-7-trifluoromethylquinoline-3-yl)methyloxy]phenyl}propanoic acid] | 1.2 | 60.4 | 111 | 0.2 | 0.3 | 6.4
